Data on 23 compounds can be found in patent publication US11098010B2 (priority 2017, dated 2021).

Like-named read-outs stand apart in the source and are kept apart here.

The subject of this assay is HBV rcDNA in HepDE19 cells. Nature of the assay: HepDE19 assay with bDNA quantitation of HBV rcDNA. The class given is cell-based, hepatitis B virus (HBV).
The mark [1] stands for this setting: Hepatitis B virus, HepDE19, 168 h, HepDE19 cells, inhibition of rcDNA formation, 7 day incubation, top concentration 25 μM, read-out: DE-19 bDNA EC50.
Where [2] appears, read: HepDE19 cells, inhibition of rcDNA formation, 7 day incubation, top concentration 25 μM, read-out: DE-19 bDNA EC50.
[3] abbreviates: Hepatitis B virus, HepDE19, 168 h, read-out: DE-19 bDNA EC50 (μM), HepDE19 cells, inhibition of rcDNA formation, 7 day incubation, top concentration 25 μM.

For `COC1Cc2c(C(=O)Nc3ccc(F)c(F)c3)ccc(F)c2C1NC(=O)OCc1ccccn1` (centres unmarked) [Compound 246, O-pyridin-2-ylmethyl, N-(4-((3,4-difluorophenyl)carbamoyl)-7-fluoro-2-methoxy-2,3-dihydro-1H-inden-1-yl)carbamate], the EC50 under setting [1] is 2.7 µM.

As to `COC1Cc2c(C(=O)Nc3ccc(F)c(Cl)c3)ccc(F)c2C1NC(=O)OCc1ccccn1` (centres unmarked) [Compound 247, O-pyridin-2-ylmethyl, N-(4-((3-chloro-4-fluorophenyl)carbamoyl)-7-fluoro-2-methoxy-2,3-dihydro-1H-inden-1-yl)carbamate], the EC50 under setting [1] was found to be 0.68 µM.

For `O=C(N[C@H]1CCc2c(C(=O)Nc3ccc(F)c(Cl)c3)ccc(F)c21)OCc1ncn(C2CCCCO2)n1` (stereo partly drawn) [Compound 248, O-(1-(tetrahydro-2H-pyran-2-yl)-1H-1,2,4-triazol-3-yl)methyl, N-((S)-4-((3-chloro-4-fluorophenyl)carbamoyl)-7-fluoro-2,3-dihydro-1H-inden-1-yl) carbamate], the EC50 under setting [2] came out at 0.15 µM.

For `O=C(Nc1ccc(F)c(Cl)c1)c1ccc(F)c2c1CCC2=O` [Compound 251, N-(3-Chloro-4-fluorophenyl)-7-fluoro-1-oxo-2,3-dihydro-1H-indene-4-carboxamide], the EC50 under setting [1] came out at 0.55 µM.

For the compound `[2H]C([2H])(OC(=O)N[C@H]1CCc2c(C(=O)Nc3ccc(F)c(Cl)c3)ccc(F)c21)c1ncn(C([2H])([2H])[2H])n1` [Compound 252, O-((1-(Methyl-d3)-1H-1,2,4-triazol-3-yl)methyl-d2, N—(S)-(4-((3-chloro-4-fluorophenyl)carbamoyl)-7-fluoro-2,3-dihydro-1H-inden-1-yl) carbamate], under setting [1], the EC50 turned out to be 0.13 µM.

For `O=C(N[C@H]1CCc2c(C(=O)Nc3ccc(F)c(Cl)c3)ccc(F)c21)OCc1ncn(COP(=O)(O)O)n1` [Compound 253, O-(1-((Phosphonoxy)methyl)-1H-1,2,4-triazol-3-yl)methyl, N—(S)-(4-((3-chloro-4-fluorophenyl)carbamoyl)-7-fluoro-2,3-dihydro-1H-inden-1-yl) carbamate], under setting [3], the EC50 is 0.12 µM.

As to `O=C(N[C@H]1CCc2c(C(=O)Nc3ccc(F)c(Cl)c3)ccc(F)c21)OCc1ccn(COP(=O)(O)O)n1` [Compound 254, Sodium (S)-(3-((((4-((3-chloro-4-fluorophenyl)carbamoyl)-7-fluoro-2,3-dihydro-1H-inden-1-yl)carbamoyl)oxy)methyl)-1H-pyrazol-1-yl)methyl phosphate], the EC50 under setting [3] worked out at 0.57 µM.

Take `N#CCCOC(=O)N[C@H]1CCc2c(C(=O)Nc3ccc(F)c(Cl)c3)ccc(F)c21` [Compound 255, O—(S)-2-Cyanoethyl, N-4-(3-chloro-4-fluorophenylcarbamoyl)-7-fluoro-2,3-dihydro-1H-inden-1-yl carbamate]: the EC50 under setting [1] stood at 0.08 µM.

As for `N#CCCCOC(=O)N[C@H]1CCc2c(C(=O)Nc3ccc(F)c(Cl)c3)ccc(F)c21` [Compound 256, O—(S)-3-Cyanopropyl, N-4-(3-chloro-4-fluorophenylcarbamoyl)-7-fluoro-2,3-dihydro-1H-inden-1-yl carbamate], the EC50 under setting [1] amounted to 0.24 µM.

Consider `O=C(Nc1ccc(F)c(Cl)c1)c1ccc(F)c2c1CCC21NC(=O)N(Cc2ccccn2)C1=O` (centres unmarked) [Compound 259, N-(3-chloro-4-fluoro-phenyl)-7′-fluoro-2,5-dioxo-1-(2-pyridylmethyl) spiro[imidazolidine-4,1′-indane]-4′-carboxamide], for which the EC50 under setting [2] was determined as 2.9 µM.

For the compound `O=C(Nc1ccc(F)c(Cl)c1)c1ccc(F)c2c1CCC21NC(=O)N(Cc2ccccn2)C1=O` (centres unmarked) [Compound 260, N-(3-chloro-4-fluoro-phenyl)-7-fluoro-2,5-dioxo-1-(2-pyridylmethyl)spiro [imidazolidine-4,1′-indane]-4′-carboxamide], the EC50 under setting [2] was determined as 13 µM.

`CNC(=O)NC1CCc2c(C(=O)Nc3ccc(F)c(Cl)c3)ccnc21` (centres unmarked) [Compound 263, N-(3-Chloro-4-fluorophenyl)-7-(3-methylureido)-6,7-dihydro-5H-cyclopenta[b]pyridine-4-carboxamide]: the EC50 under setting [1] worked out at 1.9 µM.

Turning to `COC(=O)NC1CCc2c(C(=O)Nc3ccc(F)c(Cl)c3)ccnc21` (centres unmarked) [Compound 264, O-Methyl, N-(4-((3-chloro-4-fluorophenyl)carbamoyl)-6,7-dihydro-5H-cyclopenta[b]pyridin-7-yl) carbamate], under setting [1], the EC50 was 0.54 µM.

Take `O=C(NC1CCc2c(C(=O)Nc3ccc(F)c(Cl)c3)ccnc21)OCc1ccccn1` (centres unmarked) [Compound 265, O-pyridin-2-ylmethyl, N-(4-((3-chloro-4-fluorophenyl)carbamoyl)-6,7-dihydro-5H-cyclopenta[b]pyridin-7-yl) carbamate]: the EC50 under setting [2] came out at 0.54 µM.

With `O=C(NC1CCc2c(C(=O)Nc3ccc(F)c(Cl)c3)ccnc21)OCc1ccccn1` (centres unmarked) [Compound 266, O-Pyridin-2-ylmethyl, N-(4-((3-chloro-4-fluorophenyl)carbamoyl)-6,7-dihydro-5H-cyclopenta[b]pyridin-7-yl) carbamate], the EC50 under setting [2] amounted to 0.43 µM.

For the compound `O=C(NC1CCc2c(C(=O)Nc3ccc(F)c(Cl)c3)ccnc21)OCc1ccccn1` (centres unmarked) [Compound 267, O-Pyridin-2-ylmethyl, N-(4-((3-chloro-4-fluorophenyl)carbamoyl)-6,7-dihydro-5H-cyclopenta[b]pyridin-7-yl) carbamate], the EC50 under setting [2] stood at 4.9 µM.

With `O=C(NC1CCc2c(C(=O)Nc3ccc(F)c(Cl)c3)cncc21)OCc1ccccn1` (centres unmarked) [Compound 269, O-pyridin-2-ylmethyl, N-(4-((3-chloro-4-fluorophenyl)carbamoyl)-6,7-dihydro-5H-cyclopenta[c]pyridin-7-yl) carbamate], the EC50 under setting [2] was determined as 2.3 µM.

Regarding `O=C(NC1CCc2c(C(=O)Nc3ccc(F)c(Cl)c3)cncc21)OCc1ccccn1` (centres unmarked) [Compound 270, O-Pyridin-2-ylmethyl, N-(4-((3-chloro-4-fluorophenyl)carbamoyl)-6,7-dihydro-5H-cyclopenta[c]pyridin-7-yl) carbamate], under setting [2], the EC50 came to 1.1 µM.

Regarding `O=C(Nc1ccc(F)c(Cl)c1)c1ccc(F)c2c1CCS2(=O)=O` [Compound 272, N-(3-Chloro-4-fluorophenyl)-7-fluoro-2,3-dihydrobenzo[b]thiophene-4-carboxamide 1,1-dioxide], under setting [1], the EC50 was found to be 0.22 µM.

As for `O=C(Nc1ccc(F)c(Cl)c1)c1cccc2c1CCS2(=O)=O` [Compound 273, N-(3-Chloro-4-fluorophenyl)-2,3-dihydrobenzo[b]thiophene-4-carboxamide 1,1-dioxide], the EC50 under setting [1] was 0.21 µM.

On to `CC(C)(C)N1Cc2c(C(=O)Nc3ccc(F)c(Cl)c3)cccc2S1(=O)=O` [Compound 274, 2-(tert-Butyl)-N-(3-chloro-4-fluorophenyl)-2,3-dihydrobenzo[d]isothiazole-4-carboxamide 1,1-dioxide], for which the EC50 under setting [1] stood at 4.1 µM.

For `O=C(Nc1ccc(F)c(Cl)c1)c1cccc2c1CNS2(=O)=O` [Compound 275, N-(3-Chloro-4-fluorophenyl)-2,3-dihydrobenzo[d]isothiazole-4-carboxamide-1,1-dioxide], under setting [1], the EC50 was 0.25 µM.

On to `O=C(Nc1ccc(F)c(Cl)c1)c1cccc2c1CN(CCO)S2(=O)=O` [Compound 276, N-(3-Chloro-4-fluorophenyl)-2-(2-hydroxyethyl)-2,3-dihydrobenzo[d]isothiazole-4-carboxamide 1,1-dioxide], for which the EC50 under setting [1] is 1.4 µM.
